Values joined by “and” are separate entries in the source; they are usually repeats but may differ in a detail not shown here. Equal entries are not always repeated. Active and inactive are the calls of the source. How the calls were made is not given here.
Legend:
[1] = system: M. tuberculosis starvation survival, CFU enumeration; assay: Mycobacterium tuberculosis starvation survival, colony forming units enumeration, confirmatory dose response (AID 651857)
[2] = as above; conditions: M. tuberculosis starvation survival, CFU enumeration

In the case of `Fc1ccc(-c2nnc(SCc3ccccc3)o2)cc1`, the IC90 [1] is reported as 31 µM.

For `Brc1cccc(-c2nnc(SCc3ccccn3)o2)c1`, the IC90 [1] was less than 8 µM.

In the case of `O=S(Cc1ccccc1)c1nnc(-c2ccccc2)o1` (stereo unspecified), the IC90 [1] is reported as < 8 µM and 2 µM.

In the case of `O=S(Cc1cn(Cc2ccccc2)nn1)c1nnc(-c2ccc(Cl)cc2)o1` (stereo unspecified), the IC90 [1] is reported as < 31 µM and 8 µM.

Molecule `c1ccc(Cn2cc(CSc3nnc(C4CCC4)o3)nn2)cc1` has an IC90 [1] of 8 µM.

For `CN(Cc1ccccc1)c1nnc(-c2ccccc2)o1`, the IC90 [1] was > 62 µM (inactive).

With `Fc1ccc(Cn2cc(CSc3nnc(C4CCCC4)o3)nn2)cc1` the IC90 [1] was 8 µM.

Molecule `c1ccc(Cn2cc(CSc3nnc(-c4ccccc4)o3)nn2)cc1` has an IC90 [1] of 4 µM.

With `COc1ccc(CSc2nnc(-c3ccc(Cl)cc3)o2)nc1` the IC90 [1] was less than 8 µM.

In the case of `Clc1ccc(-c2nnc(SCc3cn(Cc4ccccc4)nn3)o2)cc1`, the IC90 [1] is reported as 2 µM and < 8 µM.

For `[N-]=[N+]=NCCOCCNC(=O)CCCOc1ccc(CSc2nnc(-c3ccc(Cl)cc3)o2)nc1`, the IC90 [1] was less than 8 µM.

For `c1ccc(COc2nnc(-c3ccccc3)o2)cc1`, the IC90 [1] was > 62 µM (inactive).

For `c1ccc(-c2nnc(SCCN3CCN(c4ccccc4)CC3)o2)cc1`, the IC90 [1] was 16 µM.

With `N#Cc1ccccc1CSc1nnc(-c2ccccc2)o1` the IC90 [1] was > 62 µM (inactive).

With `[O-][n+]1ccccc1CSc1nnc(-c2ccccc2)o1` the IC90 [1] was > 62 µM (inactive).

In the case of `FC(F)(F)Oc1ccc(CSc2nnc(-c3ccccc3)o2)cc1`, the IC90 [1] is reported as > 62 µM (inactive).

For `c1ccc(CSc2nnc(-c3ccccc3)o2)cc1`, the IC90 [1] was 8 µM.

Work on `c1ccc(-c2nnc(SC3CCCCC3)o2)cc1` yielded an IC90 [1] of 31 µM.

With `Fc1cccc(-c2nnc(SCc3ccccc3)o2)c1` the IC90 [1] was 62 µM.

With `COc1ccc(CSc2nnc(-c3ccccc3)o2)cc1` the IC90 [1] was > 62 µM (inactive).

For `c1ccc(Cn2cc(CSc3nnc(C4CCCC4)o3)nn2)cc1`, the IC90 [1] was 31 µM.

In the case of `Fc1ccc(Cn2cc(CSc3nnc(-c4ccc(Cl)cc4)o3)nn2)cc1`, the IC90 [1] is reported as 2 µM.

With `Fc1cccc(-c2nnc(SCc3ccccn3)o2)c1` the IC90 [1] was less than 8 µM.

With `COc1cccc(-c2nnc(SCc3ccccn3)o2)c1` the IC90 [1] was less than 8 µM.

Work on `c1ccc(CSc2nnc(C3CCCC3)o2)cc1` yielded an IC90 [1] of 31 µM.

`Fc1ccc(-c2nnc(SCc3cn(Cc4ccccc4)nn3)o2)cc1` showed an IC90 [1] of 2 µM.

With `COc1cccc(CSc2nnc(-c3ccccc3)o2)c1` the IC90 [1] was 16 µM.

For `c1ccc(CSc2nnc(-c3cccs3)o2)cc1`, the IC90 [1] was > 62 µM (inactive).

In the case of `c1ccc(-c2nnc(SCc3cscn3)o2)cc1`, the IC90 [1] is reported as 62 µM.

Molecule `c1ccc(CSc2nnc(-c3cnco3)o2)cc1` has an IC90 [1] of 16 µM.

Molecule `c1ccc(-n2cc(CSc3nnc(C4CCC4)o3)nn2)cc1` has an IC90 [1] of 2 µM.

In the case of `Fc1ccc(CSc2nnc(-c3ccccc3)o2)cc1`, the IC90 [1] is reported as 62 µM.

With `Fc1ccc(-c2nnc(SCc3ccccn3)o2)cc1` the IC90 [1] was less than 8 µM.

`Clc1ccc(CSc2nnc(-c3ccccc3)o2)cc1` gave an IC90 [1] of 8 µM.

With `COCCSc1nnc(-c2ccccc2)o1` the IC90 [1] was 4 µM.

For `Clc1ccc(-c2nnc(SCc3cn(-c4ccccc4)nn3)o2)cc1`, the IC90 [1] was 2 µM.

`[N-]=[N+]=NCCOCCNC(=O)CCCOc1ccc(CS(=O)c2nnc(-c3ccc(Cl)cc3)o2)nc1` (stereo unspecified) gave an IC90 [1] of less than 8 µM.

For `c1ccc(CSc2nnc(-c3cccnc3)o2)cc1`, the IC90 [1] was 62 µM.

In the case of `Fc1ccc(Cn2cc(CSc3nnc(-c4ccc(F)cc4)o3)nn2)cc1`, the IC90 [1] is reported as 2 µM.

With `c1ccc(CCc2nnc(-c3ccccc3)o2)cc1` the IC90 [1] was > 62 µM (inactive).

`Fc1ccc(-c2nnc(SCc3cn(-c4ccccc4)nn3)o2)cc1` gave an IC90 [1] of 2 µM.

In the case of `FC1(F)CCN(CCSc2nnc(-c3ccccc3)o2)CC1`, the IC90 [1] is reported as > 62 µM (inactive).

`c1ccc(-c2nnc(SCCC3OCCCO3)o2)cc1` gave an IC90 [1] of 10 µM.

`c1ccc(-c2nnc(SCc3ccccn3)o2)cc1` showed an IC90 [1] of 4 µM.

Molecule `Brc1ccc(-c2nnc(SCc3ccccn3)o2)cc1` has an IC90 [1] of less than 8 µM.

For `Cc1ccc(-c2nnc(SCc3ccccc3)o2)cc1`, the IC90 [1] was > 62 µM (inactive).

Molecule `Fc1ccc(Cn2cc(CSc3nnc(C4CCC4)o3)nn2)cc1` has an IC90 [1] of 8 µM.

For `CC(C)c1nnc(SCc2ccccc2)o1`, the IC90 [1] was 125 µM.

Work on `c1ccc(-n2cc(CSc3nnc(C4CCCC4)o3)nn2)cc1` yielded an IC90 [1] of 4 µM.

For `O=S(Cc1cn(Cc2ccc(F)cc2)nn1)c1nnc(-c2ccc(Cl)cc2)o1` (stereo unspecified), the IC90 [1] was 2 µM.

`Fc1cccc(CSc2nnc(-c3ccccc3)o2)c1` showed an IC90 [1] of 31 µM.

In the case of `FC1(F)CN(CCSc2nnc(-c3ccccc3)o2)C1`, the IC90 [1] is reported as > 62 µM (inactive).

In the case of `O=S(=O)(Cc1ccccc1)c1nnc(-c2ccccc2)o1`, the IC90 [1] is reported as < 62 µM and 8 µM.

With `FC(F)(F)c1ccccc1CSc1nnc(-c2ccccc2)o1` the IC90 [1] was > 62 µM (inactive).

`c1ccc(CSc2nnc(-c3ccccn3)o2)cc1` showed an IC90 [1] of 31 µM.

With `O=S(=O)(Cc1cn(Cc2ccccc2)nn1)c1nnc(-c2ccc(Cl)cc2)o1` the outcome [2] was “inactive”.

Source: PubChem BioAssay AID651857 (Broad Institute, 2012)
